Reference: the supplement of paper PMC10307832

Key:
Assay in all cases: relative viability (nuclei count vs DMSO), 5 days (fraction); higher = more cells survive
[1] = compound: Cc1cc(Nc2cc(N3CCN(C)CC3)nc(Sc3ccc(NC(=O)C4CC4)cc3)n2)n[nH]1 [Tozasertib] + COc1cc2c(Oc3ccc(NC(=O)C4(C(=O)Nc5ccc(F)cc5)CC4)cc3F)ccnc2cc1OCCCN1CCOCC1 [Foretinib] (partner 0.25 µM)
Summary of the method: (§1)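 Lung cancer cell lines in 1536-well plates got either a single drug or a fixed anchor-drug dose together with five library-drug doses (not always all listed) in √10 steps, by pin tool, on the day after seeding. Nuclei were counted after 5 days, and relative viability is the treated-to-vehicle ratio of nuclei counts. Values are medians of duplicate plates.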

[2] = compound: Cc1cc(Nc2cc(N3CCN(C)CC3)nc(Sc3ccc(NC(=O)C4CC4)cc3)n2)n[nH]1 [Tozasertib] + CC(=O)Nc1cccc(-n2c(=O)n(C3CC3)c(=O)c3c(Nc4ccc(I)cc4F)n(C)c(=O)c(C)c32)c1 [Trametinib] (partner 0.02 µM)
Summary of the method: as §1

[3] = compound: Cc1cc(Nc2cc(N3CCN(C)CC3)nc(Sc3ccc(NC(=O)C4CC4)cc3)n2)n[nH]1 [Tozasertib] + Nc1ncn([C@H]2C[C@H](O)[C@@H](CO)O2)c(=O)n1 [Decitabine] (partner 2 µM)
Summary of the method: as §1

[4] = compound: Cc1cc(Nc2cc(N3CCN(C)CC3)nc(Sc3ccc(NC(=O)C4CC4)cc3)n2)n[nH]1 [Tozasertib] + Cc1nc(NC(=O)N2CCC[C@H]2C(N)=O)sc1-c1ccnc(C(C)(C)C(F)(F)F)c1 [Alpelisib] (partner 2 µM)
Summary of the method: as §1

[5] = compound: Cc1cc(Nc2cc(N3CCN(C)CC3)nc(Sc3ccc(NC(=O)C4CC4)cc3)n2)n[nH]1 [Tozasertib] + C[C@]1(O)C[C@@H](c2nc(-c3ccc4ccc(-c5ccccc5)nc4c3)c3c(N)nccn32)C1 [Linsitinib] (partner 1 µM)
Summary of the method: as §1

Row | Cell Line | relative viability ([1]; first compound 0.004 µM) | relative viability ([1]; first compound 0.01265 µM) | relative viability ([1]; first compound 0.04 µM) | relative viability ([1]; first compound 0.1265 µM) | relative viability ([2]; first compound 0.004 µM) | relative viability ([2]; first compound 0.01265 µM) | relative viability ([2]; first compound 0.04 µM) | relative viability ([2]; first compound 0.1265 µM) | relative viability ([3]; first compound 0.004 µM) | relative viability ([3]; first compound 0.01265 µM) | relative viability ([3]; first compound 0.04 µM) | relative viability ([3]; first compound 0.1265 µM) | relative viability ([4]; first compound 0.004 µM) | relative viability ([4]; first compound 0.01265 µM) | relative viability ([4]; first compound 0.04 µM) | relative viability ([4]; first compound 0.1265 µM) | relative viability ([5]; first compound 0.004 µM) | relative viability ([5]; first compound 0.01265 µM) | relative viability ([5]; first compound 0.04 µM) | relative viability ([5]; first compound 0.1265 µM)
1 | 201T | 1.09 | 1.04 | 1.28 | 1.09 | 0.707 | 0.705 | 0.759 | 0.71 | 0.854 | 0.844 | 0.874 | 0.83 | 0.993 | 0.968 | 1.06 | 1 | 1.02 | 0.955 | 1.08 | 1.04
2 | A549 | – | 0.823 | 0.871 | 0.251 | – | – | – | – | 0.27 | 0.266 | 0.282 | 0.199 | 0.686 | 0.826 | 0.759 | 0.211 | 0.461 | 0.511 | 0.71 | 0.33
3 | A-427 | 1.03 | 0.935 | 1 | 0.594 | 0.783 | 0.68 | 0.818 | 0.509 | 0.563 | 0.528 | 0.627 | 0.426 | 1.06 | 1.1 | 1.17 | 0.751 | 1.16 | 0.996 | 1.12 | 0.826
4 | ABC-1 | 0.988 | 1.27 | 0.838 | 0.381 | – | – | – | – | 0.989 | 1.03 | 0.539 | 0.44 | 0.916 | 1.06 | 0.721 | 0.816 | 0.831 | – | 0.554 | 0.767
5 | BEN | 1.02 | 0.463 | 0.678 | 0.493 | 1.03 | 1.02 | – | 0.961 | 0.739 | 0.688 | 0.755 | 0.501 | 1.04 | 0.948 | 1.14 | 0.931 | 1.08 | 0.948 | 0.927 | 0.85
6 | CAL-12T | 1.19 | 1.04 | 1.11 | 1.11 | 0.439 | 0.27 | 0.445 | 0.219 | – | – | – | – | 1.31 | 1.23 | 1.33 | 1.08 | 0.857 | 0.804 | 0.793 | 0.64
7 | COR-L23 | 0.998 | 0.847 | 0.783 | 0.523 | 0.613 | 0.599 | 0.609 | 0.332 | 0.42 | 0.384 | 0.439 | 0.247 | 0.827 | 0.763 | 0.585 | 0.699 | 0.99 | 0.906 | 0.846 | 0.39
8 | COR-L 105 | 1.03 | 0.993 | 1 | 0.803 | 0.436 | 0.393 | 0.461 | 0.329 | 0.717 | 0.61 | 0.69 | 0.558 | – | 1.29 | 1.32 | 0.739 | 1.15 | 1.15 | 1.02 | 0.868
9 | ChaGo-K-1 | 0.939 | 0.874 | 0.813 | 0.249 | 0.879 | 0.838 | 0.895 | 0.736 | 0.506 | 0.463 | 0.49 | 0.446 | – | – | – | – | – | – | – | –
10 | EKVX | 0.74 | 0.76 | 0.838 | 0.786 | 0.369 | 0.301 | 0.339 | 0.422 | 0.265 | 0.345 | 0.354 | 0.316 | 0.779 | 0.846 | 1.01 | 0.878 | 0.812 | 0.975 | 1.18 | 0.913
11 | EMC-BAC-2 | 1.1 | 0.935 | 1.02 | 0.642 | 0.873 | 0.826 | 0.928 | – | 0.977 | 0.86 | 0.918 | 0.58 | 0.771 | – | 0.724 | 0.428 | 0.867 | 0.79 | – | 0.611
12 | EPLC-272H | 0.643 | 0.595 | 0.604 | 0.496 | 0.263 | 0.308 | 0.32 | 0.259 | 0.369 | 0.325 | 0.368 | 0.318 | 0.845 | 0.789 | 1.11 | – | 1.13 | 1.18 | 1.12 | –
13 | H3255 | 1.43 | 0.698 | 0.868 | 0.706 | 0.578 | 0.618 | 0.552 | 0.659 | 0.71 | 0.475 | 0.592 | 0.558 | 0.592 | 0.654 | 0.762 | 0.658 | 0.862 | 0.758 | 1.04 | 0.817
14 | HARA | – | 0.824 | 1.03 | 0.145 | 0.63 | 0.565 | 0.608 | 0.283 | 0.495 | 0.486 | 0.572 | 0.203 | 0.955 | 0.795 | 0.994 | 0.305 | 1 | – | 1.01 | 0.374
15 | HCC-15 | 1.1 | 0.99 | 1.1 | 0.764 | 0.386 | 0.359 | 0.405 | 0.375 | 0.66 | 0.496 | 0.64 | 0.339 | 0.942 | 0.841 | – | 0.728 | 0.893 | 0.778 | 0.882 | 0.734
16 | HCC-44 | – | – | – | – | – | 1.03 | 1.22 | 1 | 0.935 | 0.917 | 0.87 | 0.766 | 0.779 | 0.773 | 0.836 | – | 0.653 | 0.606 | 0.691 | 0.546
17 | HCC-78 | 0.678 | 0.708 | 0.587 | 0.466 | 0.821 | 0.478 | 0.824 | 0.632 | 0.746 | 0.598 | 0.763 | 0.595 | 0.38 | 0.305 | 0.46 | 0.241 | 0.661 | 0.452 | 0.588 | 0.439
